Results from patent US8217053B2, “Camptothecin derivatives with antitumor activity” (Indena S.p.A., priority 2006, dated 2012).
In brackets after ≈: the same amount, converted by molar mass.

Columns and labels:
[1] = system: lung tumor model; assay: In vivo comparison on a lung tumor model; settings: dose 50 mg/kg/inj.
Text: Compound thio-SN38 (IDN6156) was transformed into thio-CPT11 (thio-Irinotecan) according to procedures for the conversion of SN38 to CPT11 (Irinotecan) reported in the literature. The resulting compound thio-irinotecan was compared in vivo with close non-sulforated analogue in clinical use (CPT11) on a lung tumor model highly sensitive to the standard references.

[2] = biological target: T1, human recombinant enzyme (full length top1) (Homo sapiens, UniProt P11387); assay: Topoisomerase-I-dependent DNA rupture assay (DNA damage persistence); assay type: biochemical; settings: 0.6 M NaCl added after 30 min incubation with 10 μM of the drug
T1 construct: the human recombinant enzyme (full length top1)
T1 sequence (P11387 1-765): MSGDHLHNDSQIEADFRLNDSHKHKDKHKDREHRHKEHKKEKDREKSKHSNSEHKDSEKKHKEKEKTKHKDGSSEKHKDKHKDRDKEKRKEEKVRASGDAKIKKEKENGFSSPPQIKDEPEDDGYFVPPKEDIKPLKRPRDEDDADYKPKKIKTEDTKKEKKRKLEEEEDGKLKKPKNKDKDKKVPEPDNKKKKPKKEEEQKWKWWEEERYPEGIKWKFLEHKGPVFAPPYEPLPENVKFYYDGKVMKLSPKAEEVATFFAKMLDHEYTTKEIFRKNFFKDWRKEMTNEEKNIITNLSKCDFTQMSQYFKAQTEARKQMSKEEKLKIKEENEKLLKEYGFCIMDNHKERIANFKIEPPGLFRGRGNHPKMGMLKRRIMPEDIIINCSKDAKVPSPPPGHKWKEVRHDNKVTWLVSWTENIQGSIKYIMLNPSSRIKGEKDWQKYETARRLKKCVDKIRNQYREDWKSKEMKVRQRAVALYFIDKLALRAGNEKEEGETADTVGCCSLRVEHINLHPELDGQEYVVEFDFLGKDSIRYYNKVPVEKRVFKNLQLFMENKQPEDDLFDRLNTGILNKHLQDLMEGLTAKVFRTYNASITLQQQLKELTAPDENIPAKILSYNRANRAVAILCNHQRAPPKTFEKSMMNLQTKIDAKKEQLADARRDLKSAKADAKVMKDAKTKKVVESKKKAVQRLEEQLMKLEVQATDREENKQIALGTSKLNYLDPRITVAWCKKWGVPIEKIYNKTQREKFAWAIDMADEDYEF

[3] = system: NCI-H460 cell line (NSCL cancer); assay: Cell growth inhibition assay (cytotoxicity); assay type: cell-based, human; settings: counted 72 hours after exposure, 1 or 72 hr drug exposure; for IC50: Homo sapiens, NCI-H460, read-out: NCI-H460 IC50 (μg/mL) Cell count, H460 human large cell lung tumor cells; for NCI-H460 IC50 (μg/mL) Cell count: H460 human large cell lung tumor cells
Protocol: The compounds of the invention were tested in a cytotoxicity assay on a wide spectrum of tumour cells. By way of example, the cytotoxicity data on the NCI-H460 cell line (NSCL cancer) concerning two compounds of formula (I) are reported, using camptothecin and the drugs Topotecan and SN-38 as references:
H460 Cells from human large cell lung tumor were cultured in RPMI-1640 medium containing 10% foetal calf serum. Cell sensitivity was determined by cell growth inhibition assay after 1 or 72 hr drug exposure. The cells in logarithmic growth were collected and seeded in duplicate in 6-wells plates. […] IC50 is defined as the concentration inhibiting by 50% cell growth compared with untreated controls growth.

| SMILES | Max BWL % [1] [%] | TWI % [1] [%] | Tox/Tot [1] | LCK (0.5 g) ([1]; 0.5 g) | Persistence of DNA damage (%) ([2]; time 0 min) | Persistence of DNA damage (%) ([2]; time 1 min) | Persistence of DNA damage (%) ([2]; time 5 min) | Persistence of DNA damage (%) ([2]; time 10 min) | IC50 [3] [µg/mL] | NCI-H460 IC50 (μg/mL) Cell count [3] [µg/mL] |
| --- | --- | --- | --- | --- | --- | --- | --- | --- | --- | --- |
| CCc1c2c(nc3ccc(OC(=O)N4CCC(N5CCCCC5)CC4)cc13)-c1cc3c(c(=O)n1C2)COC(=O)[C@]3(O)CC [CPT 11] | 15 | 91 | 0/5 | 1.8 |  |  |  |  |  |  |
| CC[C@@]1(O)C(=O)OCc2c1cc1n(c2=O)Cc2cc3ccccc3nc2-1 [Camptothecin] |  |  |  |  | 100 | 58 | 23 | 20 |  |  |
| CC[C@@]1(O)C(=O)OCc2c1cc1n(c2=S)Cc2cc3ccccc3nc2-1 [IDN 6070, Thio-camptothecin] |  |  |  |  | 100 | 33 | 10 | 10 | 0.05 ± 0.021 (≈ 0.137 µM) |  |
| CC[C@@]1(O)C(=O)OCc2c1cc1n(c2=S)C(N=[N+]=[N-])c2cc3ccccc3nc2-1 (some centres unmarked) [IDN 6092] |  |  |  |  | 100 | 35 | 18 | 15 |  | 0.3 ± 0.07 |
| CC[C@@]1(O)C(=O)OCc2c1cc1n(c2=S)C(N=[N+]=[N-])c2cc3ccccc3nc2-1 (some centres unmarked) [IDN 6093] |  |  |  |  |  |  |  |  |  | 0.72 ± 0.2 |
| CCc1c2c(nc3ccc(O)cc13)-c1cc3c(c(=S)n1C2)COC(=O)[C@]3(O)CC [IDN 6156, ThioSN-38] |  |  |  |  | 100 | 100 | 80 | 60 | 0.0095 ± 0.0007 (≈ 0.0233 µM) |  |
| CC[C@@]1(O)C(=O)OCc2c1cc1n(c2=S)Cc2cc3c(CN(C)C)c(O)ccc3nc2-1 [IDN 6180, Thio-Topotecan] |  |  |  |  |  |  |  |  | 0.115 ± 0.021 (≈ 0.263 µM) |  |
| CC[C@@]1(O)C(=O)OCc2c1cc1n(c2=S)Cc2cc3cc(O)ccc3nc2-1 [IDN 6181, 10-hydroxy-Thio-Camptothecin] |  |  |  |  | 100 | 88 | 50 | 22 | 0.035 ± 0.011 (≈ 0.092 µM) |  |
| CCc1c2c(nc3ccc(O)cc13)-c1cc3c(c(=O)n1C2)COC(=O)[C@]3(O)CC [SN38, 10-hydroxy-7-ethylcamptothecin, reference compound] |  |  |  |  | 100 | 60 | 33 | 28 |  |  |
| CC[C@@]1(O)C(=O)OCc2c1cc1n(c2=O)Cc2cc3c(CN(C)C)c(O)ccc3nc2-1 [Topotecan, reference compound] |  |  |  |  | 100 | 65 | 20 | 10 |  |  |
